Data on 26 compounds can be found in patent US10894784B2, “Heteroarylbenzimidazole compounds” (BAYER PHARMA AKTIENGESELLSCHAFT, priority 2015, dated 2021).

This experiment deals with TBK1 (Homo sapiens (Human), UniProt Q9UHD2). Nature of the experiment: TBK1 low ATP kinase assay (in vitro assay 1). The class given is biochemical. The settings on record: in vitro assay 1, read-out: TBK1 low ATP kinase assay IC50.
Sequence of TBK1 (Q9UHD2 whole entry): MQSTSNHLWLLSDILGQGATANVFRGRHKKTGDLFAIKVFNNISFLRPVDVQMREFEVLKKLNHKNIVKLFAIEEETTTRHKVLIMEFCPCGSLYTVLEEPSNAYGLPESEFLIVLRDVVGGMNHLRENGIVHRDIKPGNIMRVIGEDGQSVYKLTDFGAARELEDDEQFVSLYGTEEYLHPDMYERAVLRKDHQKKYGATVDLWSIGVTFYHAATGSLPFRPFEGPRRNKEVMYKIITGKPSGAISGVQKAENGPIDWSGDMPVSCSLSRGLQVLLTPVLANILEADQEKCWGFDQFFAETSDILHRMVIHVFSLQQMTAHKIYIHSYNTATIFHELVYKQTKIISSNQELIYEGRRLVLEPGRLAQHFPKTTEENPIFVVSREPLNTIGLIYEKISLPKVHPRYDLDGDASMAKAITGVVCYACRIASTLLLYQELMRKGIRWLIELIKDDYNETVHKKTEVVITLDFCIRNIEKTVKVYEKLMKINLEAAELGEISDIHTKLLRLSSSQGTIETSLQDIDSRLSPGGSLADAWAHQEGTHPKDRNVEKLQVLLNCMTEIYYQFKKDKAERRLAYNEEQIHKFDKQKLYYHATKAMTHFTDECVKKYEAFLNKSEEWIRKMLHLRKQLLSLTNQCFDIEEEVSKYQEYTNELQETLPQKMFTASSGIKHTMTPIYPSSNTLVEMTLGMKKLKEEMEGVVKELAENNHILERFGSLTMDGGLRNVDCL

For the compound `Cc1cccc(-c2ccc3nc(Nc4cc(CN5CCN(C(=O)C6CC6)CC5)ccn4)[nH]c3c2)n1` [Example 12.02, cyclopropyl{4-[(2-{[6-(6-methylpyridin-2-yl)-1H-benzimidazol-2-yl]amino}pyridin-4-yl)methyl]piperazin-1-yl}methanone], the IC50 was determined as 924 nM.
In the case of `CCOc1c(-c2ccncc2OC)ccc2nc(Nc3cc(CN4CCN(C(=O)CC5CC5)CC4)ccn3)[nH]c12` [Example 51.02, 2-cyclopropyl-1-{4-[(2-{[7-ethoxy-6-(3-methoxypyridin-4-yl)-1H-benzimidazol-2-yl]amino}pyridin-4-yl)methyl]piperazin-1-yl}ethanone] it was 270 nM; in that of `O=C(CC(F)(F)F)N1CCN(Cc2ccnc(Nc3nc4ccc(-c5cnc(Cl)nc5)cc4[nH]3)c2)CC1` [Example 45.02.01, 1-{4-[(2-{[6-(2-chloropyrimidin-5-yl)-1H-benzimidazol-2-yl]amino}pyridin-4-yl)methyl]piperazin-1-yl}-3,3,3-trifluoropropan-1-one], 124 nM.
Take `CC(c1ccnc(Nc2nc3ccc(-c4cc(C(F)(F)F)ncn4)c(F)c3[nH]2)c1)N1CCN(C(=O)C2CC2)CC1` (single isomer, unassigned) [Example 173.03, cyclopropyl(4-{(1R or 1S)-1-[2-({7-fluoro-6-[6-(trifluoromethyl)pyrimidin-4-yl]-1H-benzimidazol-2-yl}amino)pyridin-4-yl]ethyl}piperazin-1-yl)methanone]: the concentration for half-maximal inhibition (IC50) worked out at 50.6 nM.
In the case of `O=C(CC(F)(F)F)N1CCN(Cc2ccnc(Nc3nc4ccc(-c5cnc(Cl)cn5)cc4[nH]3)c2)CC1` [Example 140.02, 1-{4-[(2-{[6-(5-chloropyrazin-2-yl)-1H-benzimidazol-2-yl]amino}pyridin-4-yl)methyl]piperazin-1-yl}-3,3,3-trifluoropropan-1-one], the IC50 came to 540 nM.
For the compound `Cc1cc(-c2ccc3nc(Nc4cc(CN5CCN(C(=O)C6CC6)CC5)ccn4)[nH]c3c2)ccn1` [Example 01.02, cyclopropyl{4-[(2-{[6-(2-methylpyridin-4-yl)-1H-benzimidazol-2-yl]amino}pyridin-4-yl)methyl]piperazin-1-yl}methanone], the IC50 was 42 nM.
In the case of `Cc1noc(-c2ccc3nc(Nc4cc(CN5CCN(C(=O)C6CC6)CC5(C)C)ccn4)[nH]c3c2)n1` [Example 16.04.04, cyclopropyl{3,3-dimethyl-4-[(2-{[6-(3-methyl-1,2,4-oxadiazol-5-yl)-1H-benzimidazol-2-yl]amino}pyridin-4-yl)methyl]piperazin-1-yl}methanone] it was 497 nM; in that of `CC(c1ccnc(Nc2nc3ccc(-c4ccncn4)cc3[nH]2)c1)N1CCN(C(=O)C2CC2)CC1` (single isomer, unassigned) [Example 23.05.01.B, cyclopropyl{4-[(1S or 1R)-1-(2-{[6-(pyrimidin-4-yl)-1H-benzimidazol-2-yl]amino}pyridin-4-yl)ethyl]piperazin-1-yl}methanone], 12.4 nM.
For `CC(c1ccnc(Nc2nc3ccc(-c4cc(OCC(C)(F)F)ncn4)cc3[nH]2)c1)N1CCN(C(=O)CC(F)(F)F)CC1` (single isomer, unassigned) [Example 165.02, 1-(4-{(1R or 1S)-1-[2-({6-[6-(2,2-difluoropropoxy)pyrimidin-4-yl]-1H-benzimidazol-2-yl}amino)pyridin-4-yl]ethyl}piperazin-1-yl)-3,3,3-trifluoropropan-1-one], the IC50 came out at 1.71 nM.
For `CCOc1c(-c2ccncc2OC)ccc2nc(Nc3cc(CN4CCN(C(=O)C5CCC5)CC4)ccn3)[nH]c12` [Example 51.04, cyclobutyl{4-[(2-{[7-ethoxy-6-(3-methoxypyridin-4-yl)-1H-benzimidazol-2-yl]amino}pyridin-4-yl)methyl]piperazin-1-yl}methanone], the 50% inhibitory concentration (IC50) came out at 203 nM.
In the case of `Cc1noc(-c2ccc3nc(Nc4cc(C(C)N5CCN(C(=O)C6(C(F)(F)F)CC6)CC5)ccn4)[nH]c3c2)n1` (single isomer, unassigned) [Example 16.06.04, {4-[(1R or 1S)-1-(2-{[6-(3-methyl-1,2,4-oxadiazol-5-yl)-1H-benzimidazol-2-yl]amino}pyridin-4-yl)ethyl]piperazin-1-yl}[1-(trifluoromethyl)cyclopropyl]methanone], the IC50 is 21.7 nM.
For `Cc1noc(-c2ccc3nc(Nc4cc(CN5C[C@@H](C)N(C(=O)C6CCC6)C[C@@H]5C)ccn4)[nH]c3c2)n1` [Example 16.02.05, cyclobutyl{(2R,5S)-2,5-dimethyl-4-[(2-{[6-(3-methyl-1,2,4-oxadiazol-5-yl)-1H-benzimidazol-2-yl]amino}pyridin-4-yl)methyl]piperazin-1-yl}methanone], the concentration for half-maximal inhibition (IC50) is 405 nM.
In the case of `Cc1noc(-c2ccc3nc(Nc4cc(CN5CCN(c6ccncc6)CC5)ccn4)[nH]c3c2)n1` [Example 101.12, 6-(3-methyl-1,2,4-oxadiazol-5-yl)-N-(4-{[4-(pyridin-4-yl)piperazin-1-yl]methyl}pyridin-2-yl)-1H-benzimidazol-2-amine] it was 450 nM; in that of `COc1nnc(Cl)cc1-c1ccc2nc(Nc3cc(CN4CCN(C(=O)C5CC5)CC4)ccn3)[nH]c2c1` [Example 46.02, {4-[(2-{[6-(6-chloro-3-methoxypyridazin-4-yl)-1H-benzimidazol-2-yl]amino}pyridin-4-yl)methyl]piperazin-1-yl}(cyclopropyl)methanone], 72.2 nM; in that of `CSc1ncc(-c2ccc3nc(Nc4cc(CN5CCN(C(=O)C6CC6)CC5)ccn4)[nH]c3c2)cn1` [Example 45.05.03, cyclopropyl(4-{[2-({6-[2-(methylsulfanyl)pyrimidin-5-yl]-1H-benzimidazol-2-yl}amino)pyridin-4-yl]methyl}piperazin-1-yl)methanone], 840 nM.
Consider `Cc1cc(-c2ccc3nc(Nc4cc(C(C)N5CCN(C(=O)C6CC6)CC5)ccn4)[nH]c3c2)n(C)n1` (single isomer, unassigned) [Example 89.03, cyclopropyl{4-[(1R or 1S)-1-(2-{[6-(1,3-dimethyl-1H-pyrazol-5-yl)-1H-benzimidazol-2-yl]amino}pyridin-4-yl)ethyl]piperazin-1-yl}methanone], for which the IC50 came out at 320 nM.
Take `Cc1cncnc1-c1ccc2nc(Nc3cc(CN4CCN(C(=O)CC(F)(F)F)CC4)ccn3)[nH]c2c1` [Example 184.02, 3,3,3-trifluoro-1-{4-[(2-{[6-(5-methylpyrimidin-4-yl)-1H-benzimidazol-2-yl]amino}pyridin-4-yl)methyl]piperazin-1-yl}propan-1-one]: the IC50 amounted to 201 nM.
In the case of `CC(c1ccnc(Nc2nc3ccc(-c4cnn(CC5CC5)c4)c(F)c3[nH]2)c1)N1CCN(C(=O)OC(C)(C)C)CC1` (single isomer, unassigned) [Example 121.01, tert-butyl 4-{(1R or 1S)-1-[2-({6-[1-(cyclopropylmethyl)-1H-pyrazol-4-yl]-7-fluoro-1H-benzimidazol-2-yl}amino)pyridin-4-yl]ethyl}piperazine-1-carboxylate], the IC50 came out at 11 nM.
In the case of `CC(c1ccnc(Nc2nc3ccc(-c4cc(N5CC(F)(F)C5)ncn4)cc3[nH]2)c1)N1CCN(C(=O)C2CC2)CC1` (single isomer, unassigned) [Example 116.02, cyclopropyl(4-{(1R or 1S)-1-[2-({6-[6-(3,3-difluoroazetidin-1-yl)pyrimidin-4-yl]-1H-benzimidazol-2-yl}amino)pyridin-4-yl]ethyl}piperazin-1-yl)methanone], the IC50 worked out at 0.76 nM.
Consider `Cc1cc(-c2ccc3nc(Nc4cc(CN5CCN(C(=O)OC(C)(C)C)CC5)ccn4)[nH]c3c2)cc(C#N)n1` [Example 136.01, tert-butyl 4-[(2-{[6-(2-cyano-6-methylpyridin-4-yl)-1H-benzimidazol-2-yl]amino}pyridin-4-yl)methyl]piperazine-1-carboxylate], for which the half-inhibitory concentration (IC50) was 53 nM.
Turning to `Cc1nccc(-c2ccc3nc(Nc4cc(C(C)N5CCN(C(=O)CC(F)(F)F)CC5)ccn4)[nH]c3c2)n1` (single isomer, unassigned) [Example 24.05.01.B, 3,3,3-trifluoro-1-{4-[(1S or 1R)-1-(2-{[6-(2-methylpyrimidin-4-yl)-1H-benzimidazol-2-yl]amino}pyridin-4-yl)ethyl]piperazin-1-yl}propan-1-one], the concentration for half-maximal inhibition (IC50) was found to be 6.62 nM.
For `Cc1noc(-c2ccc3nc(Nc4cc(C(C)N5CCN(C(=O)OC(C)(C)C)CC5)ccn4)[nH]c3c2)n1` (racemic) [Example 16.05.01, (rac)-tert-butyl 4-[1-(2-{[6-(3-methyl-1,2,4-oxadiazol-5-yl)-1H-benzimidazol-2-yl]amino}pyridin-4-yl)ethyl]piperazine-1-carboxylate], the concentration for half-maximal inhibition (IC50) was found to be 82.5 nM.
In the case of `COc1cncnc1-c1ccc2nc(Nc3cc(C(C)N4CCN(C(=O)CC(F)(F)F)CC4)ccn3)[nH]c2c1` (single isomer, unassigned) [Example 35.03.01.B, 3,3,3-trifluoro-1-{4-[(1S or 1R)-1-(2-{[6-(5-methoxypyrimidin-4-yl)-1H-benzimidazol-2-yl]amino}pyridin-4-yl)ethyl]piperazin-1-yl}propan-1-one] it was 30 nM; in that of `Cc1cc(-c2ccc3nc(Nc4cc(CN5CCN(C(=O)CC(F)(F)F)CC5)ccn4)[nH]c3c2)nc(C)n1` [Example 31.01, 1-{4-[(2-{[6-(2,6-dimethylpyrimidin-4-yl)-1H-benzimidazol-2-yl]amino}pyridin-4-yl)methyl]piperazin-1-yl}-3,3,3-trifluoropropan-1-one], 86.8 nM; in that of `COc1cnc(OCC2CC2)nc1-c1ccc2nc(Nc3cc(CN4CCN(C(=O)CC(F)(F)F)CC4)ccn3)[nH]c2c1` [Example 64.01.03, 1-(4-{[2-({6-[2-(cyclopropylmethoxy)-5-methoxypyrimidin-4-yl]-1H-benzimidazol-2-yl}amino)pyridin-4-yl]methyl}piperazin-1-yl)-3,3,3-trifluoropropan-1-one], 47 nM.
With `CCOc1ncnc(-c2ccc3nc(Nc4cc(CN5CCN(C(=O)C6CC6)CC5)ccn4)[nH]c3c2)c1OC` [Example 167.03, cyclopropyl{4-[(2-{[6-(6-ethoxy-5-methoxypyrimidin-4-yl)-1H-benzimidazol-2-yl]amino}pyridin-4-yl)methyl]piperazin-1-yl}methanone], the IC50 is 41.3 nM.

For orientation: IC50 means the concentration at which inhibition is half-maximal.
